Data from patent publication US9101567B2, “Suppression of cancer growth and metastasis using nordihydroguaiaretic acid derivatives with 7-hydroxystaurosporine” (The Johns Hopkins University, priority 2010, dated 2015).

Columns and labels:
Assay type in all cases: cell-based, human
LC3B-II [1] = test: Western blotting of LC3B-I&II (autophagy) in LNCaP cells; details: 18 hrs, in the presence of Baflomycin A1 (100 nM), M4N 80 μM
Experimental: (§1) The sample volumes were adjusted by the total protein amount. Protein assay was performed by Bio-Rad Protein Assay (Bio-Rad Laboratories, Inc. Hercules, Calif.). The samples were resolved by the standard SDS-polyacrylamide gel electrophoresis and transferred to nitrocellulose membrane (Amersham Biosciences, Bjorkgatan, Sweden). The membranes were blocked with skim milk, and incubated with primary antibodies at 4° C. overnight and then with secondary antibody conjugated with horse radish peroxidase at room temperature for 2 hrs. The signals were detected by western blot chemiluminescence reagent plus (New England Nuclear Life Science Products, Boston, Mass.).

BNIP3 mRNA = test: Northern blotting of BNIP3 mRNA in LNCaP cells; details: 6 hr exposure to hypoxic condition, M4N 80 μM
Experimental: RNA was extracted from the cells by a Trizol Reagent (Invitrogen, Carlsbad, Calif.). Twentyfive μg of RNA per lane was dissolved on the 1.5% agarose gel containing 20 mM NaPO4 (pH 6.8) and 6% formaldehyde. RNA was transferred to a Nytran SPC membrane (Sigma-Aldrich, St. Louis, Mo.). The probe for BNIP3 was derived from a 199 bp fragment DNA generated by RT-PCR using a SuperScript III First-Strand Synthesis System for RT-PCR (Invitrogen, Carlsbad, Calif.), 5′-primer ‘[…]’ and 3′-primer ‘[…]’. The PCR fragment was cloned into a topo vector (Invitrogen, Carlsbad, Calif.). After midi-prep, the DNA fragment was excised from the vector and dissolved on the 2% agarose gel and purified. The extracted DNA fragment was labeled by ^32P-αdATP, Klenow fragment, and random hexagonal primers. After unincorporated ^32P-αdATP was removed by a Sephadex G-50 spun column, the labeled DNA fragment was used as a probe. After hybridization, the membrane was washed and autoradiographed to a BioMax MR film (Kodak, Rochester, N.Y.).
BNIP3 is a member of Bcl-2 family proteins which sends pro-apoptotic signal to mitochondria and induces mitochondrial membrane potential depolarization. […] This implies that BNIP3 is involved in autophagy as well as cell death. […]

LC3B-II [2] = test: Western blotting of LC3B-II (autophagy) in HepG2 cells; details: HepG2, 15 hrs; M4N 80 μM
Experimental: as §1, with “Mass.). The effect of […] on autophagy was examined using the western blotting for LC3B-II in the presence of Baflomycin A1 in MCF-7 and HepG2 cells (FIG. 4D).” for “Mass.).”

caspase-3 or 9 = test: Western blotting of caspase-3 and 9 cleavage in HepG2 cells; details: HepG2, 17 hrs; M4N 80 μM, UCN-01 5 μM
Experimental: After cells had been grown in […] flasks and treated with reagents, the cells were washed with PBS (−) three times and suspended in RIPA buffer (150 mM NaCl, 50 mM Tris-HCl (pH 8.0), 0.1% SDS, 1% NP40, and 0.5% deoxycholate) supplemented with protease inhibitor cocktail (Calbiochem, San Diego, Calif.). The sample volumes were adjusted by the total protein amount. Protein assay was performed by Bio-Rad Protein Assay (Bio-Rad Laboratories, Inc. Hercules, Calif.). The samples were resolved by the standard SDS-polyacrylamide gel electrophoresis and transferred to nitrocellulose membrane (Amersham Biosciences, Bjorkgatan, Sweden). […] The signals were detected by western blot chemiluminescence reagent plus (New England Nuclear Life Science Products, Boston, Mass.).
The effect of the combination treatments on cell death and autophagy was examined in two cell lines other than LNCaP cells. […] On the contrary caspase-7 cleavage was detected in MCF-7 cells treated with UCN-01 treatment alone, the combination treatments of M4N with either etoposide or UCN-01 (FIG. 4C). […] On the contrary a great deal of caspase-7 cleavage product was detected in HepG2 cells treated with UCN-01 or the combination treatment of M4N with UCN-01 while a small amount of caspase-7 cleavage product was detected in the cells treated with etoposide or rapamycin regardless of a concomitant treatment with M4N (FIG. 4C).

Structure (SMILES)	net LC3B-II formation (net autophagic activity) (LC3B-II [1])	BNIP3 mRNA expression (BNIP3 mRNA)	autophagy (LC3B-II in the presence of Baflomycin A1) (LC3B-II [2])	caspase-3 cleaved product (caspase-3 or 9)
COc1ccc(C[C@@H](C)[C@@H](C)Cc2ccc(OC)c(OC)c2)cc1OC [M4N, Tetra-O-methyl nordihyroguaiaretic acid]	almost totally suppressed	suppressed the increase of BNIP3 mRNA expression	blocks autophagy	
CN[C@@H]1C[C@H]2O[C@@](C)([C@@H]1OC)n1c3ccccc3c3c4c(c5c6ccccc6n2c5c31)C(=O)N[C@H]4O [UCN-01, 7-hydroxystaurosporine]				small amount
